Species: Rattus norvegicus
Assay: Open TG-GATES - Regimen: Daily Repeat
Format: toxicity, organism-based, Sprague-Dawley
Design: regimen Daily Repeat, gender Male, age 6 weeks
Settings: in vivo, sc, 0.002 mg/kg, route subcutaneous injection, dose 2 ug/Kg, dose level Low; for APTT / Bas / Eos / Fbg / Hb / Ht / Lym / MCH / MCHC / MCV / Mono / Neu / PT / Plat / RBC / Ret / WBC: tissue Blood; for KIDNEY_L / KIDNEY_R / KIDNEY_TOTAL: tissue Kidney; for LIVER: tissue Liver; for A/G / ALP / ALT / AST / BUN / CRE / Ca / Cl / DBIL / GLC / IP / K / LDH / Na / PL / RALB / TBIL / TC / TG / TP / gamma-GTP: tissue Plasma

## CC(=O)O.N=C(N)NCCC[C@@H](NC(=O)[C@@H]1CCCN1C(=O)[C@@H]1CSSCCC(=O)N[C@@H](Cc2ccc(O)cc2)C(=O)N[C@@H](Cc2ccccc2)C(=O)N[C@@H](CCC(N)=O)C(=O)N[C@@H](CC(N)=O)C(=O)N1)C(=O)NCC(N)=O [DESMOPRESSIN ACETATE]
72 h, time 3 day
  TERMINAL_BW: 236.2 g
  APTT: 16.3 s
  Bas: 0%
  Eos: 1.2%
  Fbg: 261.2 mg/dL
  Hb: 13.3 g/dL
  Ht: 41%
  Lym: 72%
  MCH: 21.1 pg
  MCHC: 32.4%
  MCV: 65.2 fL
  Mono: 8.6%
  Neu: 18.2%
  PT: 12.2 s
  Plat: 133.6 x10_4/uL
  RBC: 630 x10_4/ul
  Ret: 8.4%
  WBC: 92.6 x10_2/uL
  KIDNEY_L: 1 g
  KIDNEY_R: 1 g
  KIDNEY_TOTAL: 2.1 g
  LIVER: 10.6 g
  A/G: 2
  ALP: 1631.2 IU/L
  ALT: 37 IU/L
  AST: 69.2 IU/L
  BUN: 15 mg/dL
  CRE: 0.4 mg/dL
  Ca: 11.2 mg/dL
  Cl: 104.8 meq/L
  DBIL: 0.01 mg/dL
  GLC: 199 mg/dL
  IP: 7.1 mg/dL
  K: 5.1 meq/L
  LDH: 180.4 IU/L
  Na: 136.8 meq/L
  PL: 146.4 mg/dL
  RALB: 3.7 g/dL
  TBIL: 0.034 mg/dL
  TC: 79.2 mg/dL
  TG: 95.2 mg/dL
  TP: 5.6 g/dL
  gamma-GTP: 1 IU/L
[…], time 7 day
  TERMINAL_BW: 262 g
  APTT: 16.7 s
  Bas: 0%
  Eos: 1%
  Fbg: 265.2 mg/dL
  Hb: 13.9 g/dL
  Ht: 42.7%
  Lym: 70%
  MCH: 21.2 pg
  MCHC: 32.5%
  MCV: 65.2 fL
  Mono: 9.4%
  Neu: 19.8%
  PT: 12.1 s
  Plat: 106 x10_4/uL
  RBC: 655.8 x10_4/ul
  Ret: 6.9%
  WBC: 101 x10_2/uL
  KIDNEY_L: 1.2 g
  KIDNEY_R: 1.2 g
  KIDNEY_TOTAL: 2.4 g
  LIVER: 11.7 g
  A/G: 1.9
  ALP: 1102.8 IU/L
  ALT: 32.8 IU/L
  AST: 69.6 IU/L
  BUN: 17.8 mg/dL
  CRE: 0.4 mg/dL
  Ca: 13.6 mg/dL
  Cl: 99.4 meq/L
  DBIL: 0.012 mg/dL
  GLC: 198.6 mg/dL
  IP: 8.2 mg/dL
  K: 4.8 meq/L
  LDH: 155.6 IU/L
  Na: 130.6 meq/L
  PL: 132.2 mg/dL
  RALB: 3.7 g/dL
  TBIL: 0.044 mg/dL
  TC: 68.6 mg/dL
  TG: 99.4 mg/dL
  TP: 5.7 g/dL
  gamma-GTP: 1 IU/L
[…], time 14 day
  TERMINAL_BW: 330.1 g
  APTT: 16.6 s
  Bas: 0%
  Eos: 1%
  Fbg: 253.8 mg/dL
  Hb: 14 g/dL
  Ht: 42.8%
  Lym: 75%
  MCH: 20.2 pg
  MCHC: 32.8%
  MCV: 61.5 fL
  Mono: 8.6%
  Neu: 15.2%
  PT: 12.1 s
  Plat: 134.8 x10_4/uL
  RBC: 696.6 x10_4/ul
  Ret: 5.6%
  WBC: 119.2 x10_2/uL
  KIDNEY_L: 1.4 g
  KIDNEY_R: 1.4 g
  KIDNEY_TOTAL: 2.7 g
  LIVER: 14 g
  A/G: 1.8
  ALP: 1109.8 IU/L
  ALT: 33.8 IU/L
  AST: 70 IU/L
  BUN: 16.6 mg/dL
  CRE: 0.4 mg/dL
  Ca: 10.8 mg/dL
  Cl: 106.2 meq/L
  DBIL: 0.01 mg/dL
  GLC: 183.8 mg/dL
  IP: 6.9 mg/dL
  K: 5.3 meq/L
  LDH: 146.8 IU/L
  Na: 138.4 meq/L
  PL: 135.6 mg/dL
  RALB: 3.6 g/dL
  TBIL: 0.028 mg/dL
  TC: 66.6 mg/dL
  TG: 111.2 mg/dL
  TP: 5.7 g/dL
  gamma-GTP: 1 IU/L
[…], time 28 day
  TERMINAL_BW: 414.7 g
  APTT: 17.5 s
  Bas: 0%
  Eos: 1.2%
  Fbg: 251.8 mg/dL
  Hb: 15.1 g/dL
  Ht: 46%
  Lym: 76.2%
  MCH: 19.4 pg
  MCHC: 32.8%
  MCV: 59.4 fL
  Mono: 7.2%
  Neu: 15.8%
  PT: 12 s
  Plat: 117.6 x10_4/uL
  RBC: 774.6 x10_4/ul
  Ret: 4.2%
  WBC: 132 x10_2/uL
  KIDNEY_L: 1.5 g
  KIDNEY_R: 1.5 g
  KIDNEY_TOTAL: 3 g
  LIVER: 16.3 g
  A/G: 1.5
  ALP: 926.6 IU/L
  ALT: 27.8 IU/L
  AST: 62.6 IU/L
  BUN: 16.6 mg/dL
  CRE: 0.4 mg/dL
  Ca: 9.3 mg/dL
  Cl: 105 meq/L
  DBIL: 0.012 mg/dL
  GLC: 193 mg/dL
  IP: 6.4 mg/dL
  K: 4.9 meq/L
  LDH: 168 IU/L
  Na: 139.4 meq/L
  PL: 142 mg/dL
  RALB: 3.8 g/dL
  TBIL: 0.046 mg/dL
  TC: 71.8 mg/dL
  TG: 158.2 mg/dL
  TP: 6.3 g/dL
  gamma-GTP: 0.6 IU/L

Reference: ChEMBL document CHEMBL3885861, “Open TG-GATES”
